From US20080262056A1, “Oxindole Oxazolidinones as Antibacterial Agents” (Pfizer Inc, priority 2004, published 2008)
Converted amounts (≈) assume the structure as drawn.

What was measured:
Type in all cases: cell-based
[1] = system: S. aureus UC-76 SA-1; experiment: in vitro antibacterial activity (MIC), S. aureus; settings: for MIC90: Staphylococcus aureus, UC76, S. aureus UC-76 SA-1
Description: (§1) The in vitro antibacterial activity of the compounds of the present invention may be assessed by following procedures recommended in (1) National Committee for Clinical Laboratory Standards (January 2003), Methods for dilution antimicrobial tests for bacteria that grow aerobically, Approved Standard (6th ed), M7-A6, NCCLS, Wayne, Pa.; (2) National Committee for Clinical Laboratory Standards (March 2001), Methods for antimicrobial susceptibility testing of anaerobic bacteria, Approved Standard (5th ed), M11-A4, NCCLS, Wayne, Pa.; (3) National Committee for Clinical Laboratory Standards (Jan. 2003), MIC testing supplemental tables, M100-S13 (for use with M7-A6), NCCLS, Wayne, Pa.; and (4) Murray P R, Baron E J, Jorgensen J H, et al. Manual of Clinical Microbiology (8th ed) Washington, D.C.: American Society for Microbiology Press, 2003. The MIC value is the lowest concentration of drug which prevented macroscopically visible growth under the conditions of the test.

[2] = system: S. pneumoniae SV1 SP-3; experiment: in vitro antibacterial activity (MIC), S. pneumoniae; settings: Streptococcus pneumoniae, SV1SP3
Description: as §1

[3] = system: E. faecalis MGH-2 EF 1-1; experiment: in vitro antibacterial activity (MIC), E. faecalis; settings: Enterococcus faecalis, MGH2EF11
Description: as §1

Structure (SMILES) | MIC90 [1] | MIC90 [2] | MIC90 [3] | in vitro antibacterial activity MIC90 ([1]; S. aureus UC-76 SA-1)
CCC(=O)NC[C@H]1CN(c2cc(F)c3c(c2)CC(=O)N3CCF)C(=O)O1 [Example 12, (S)—N-{3-[7-fluoro-1-(2-fluoro-ethyl)-2-oxo-2,3-dihydro-1H-indol-5-yl]-2-oxo-oxazolidin-5-ylmethyl}-propionamide] | 8 µg/mL (≈ 21.8 µM) | 4 µg/mL (≈ 10.9 µM) | 4 µg/mL (≈ 10.9 µM) | –
CCC(=O)NC[C@H]1CN(c2ccc3c(c2)CC(=O)N3C(C)C)C(=O)O1 [Example 14, (S)—N-[3-(1-isopropyl-2-oxo-2,3-dihydro-1H-indol-5-yl)-2-oxo-oxazolidin-5-ylmethyl]-propionamide] | 8 µg/mL (≈ 23.2 µM) | 4 µg/mL (≈ 11.6 µM) | 8 µg/mL (≈ 23.2 µM) | –
CCC(=O)NC[C@H]1CN(c2cc(F)c3c(c2)CC(=O)N3C(C)C)C(=O)O1 [Example 16, (S)—N-[3-(7-fluoro-1-isopropyl-2-oxo-2,3-dihydro-1H-indol-5-yl)-2-oxo-oxazolidin-5-ylmethyl]-propionamide] | 8 µg/mL (≈ 22 µM) | 4 µg/mL (≈ 11 µM) | 4 µg/mL (≈ 11 µM) | –
CCCN1C(=O)Cc2cc(N3C[C@H](CNC(=O)CC)OC3=O)ccc21 [Example 18, (S)—N-[2-oxo-3-(2-oxo-1-propyl-2,3-dihydro-1H-indol-5-yl)-oxazolidin-5-ylmethyl]-propionamide] | 8 µg/mL (≈ 23.2 µM) | 4 µg/mL (≈ 11.6 µM) | 8 µg/mL (≈ 23.2 µM) | –
CCCN1C(=O)Cc2cc(N3C[C@H](CNC(=O)CC)OC3=O)cc(F)c21 [Example 20, (S)—N-[3-(7-Fluoro-2-oxo-1-propyl-2,3-dihydro-1H-indol-5-yl)-2-oxo-oxazolidin-5-ylmethyl]-propionamide] | 8 µg/mL (≈ 22 µM) | 4 µg/mL (≈ 11 µM) | 8 µg/mL (≈ 22 µM) | –
CC(=O)NC[C@H]1CN(c2ccc3c(c2)CC(=O)N3C2CC2)C(=O)O1 [Example 21, (S)—N-[3-(1-cyclopropyl-2-oxo-2,3-dihydro-1H-indol-5-yl)-2-oxo-oxazolidin-5-ylmethyl]-acetamide] | 8 µg/mL (≈ 24.3 µM) | 2 µg/mL (≈ 6.07 µM) | 4 µg/mL (≈ 12.1 µM) | –
CCC(=O)NC[C@H]1CN(c2ccc3c(c2)CC(=O)N3C2CC2)C(=O)O1 [Example 22, (S)—N-[3-(1-cyclopropyl-2-oxo-2,3-dihydro-1H-indol-5-yl)-2-oxo-oxazolidin-5-ylmethyl]-propionamide] | 8 µg/mL (≈ 23.3 µM) | 4 µg/mL (≈ 11.6 µM) | 4 µg/mL (≈ 11.6 µM) | –
CC(=O)NC[C@H]1CN(c2cc(F)c3c(c2)CC(=O)N3C2CC2)C(=O)O1 [Example 23, (S)—N-[3-(1-cyclopropyl-7-fluoro-2-oxo-2,3-dihydro-1H-indol-5-yl)-2-oxo-oxazolidin-5-ylmethyl]-acetamide] | 8 µg/mL (≈ 23 µM) | 4 µg/mL (≈ 11.5 µM) | 4 µg/mL (≈ 11.5 µM) | –
CCC(C)N1C(=O)Cc2cc(N3C[C@H](CNC(C)=O)OC3=O)ccc21 (stereo partly drawn) [Example 24, (S)—N-[3-(1-sec-butyl-2-oxo-2,3-dihydro-1H-indol-5-yl)-2-oxo-oxazolidin-5-ylmethyl]-acetamide] | 8 µg/mL (≈ 23.2 µM) | 4 µg/mL (≈ 11.6 µM) | 4 µg/mL (≈ 11.6 µM) | –
CCC(=O)NC[C@H]1CN(c2ccc3c(c2)CC(=O)N3C(C)CC)C(=O)O1 (stereo partly drawn) [Example 25, (S)—N-[3-(1-sec-butyl-2-oxo-2,3-dihydro-1H-indol-5-yl)-2-oxo-oxazolidin-5-ylmethyl]-propionamide] | 8 µg/mL (≈ 22.3 µM) | 8 µg/mL (≈ 22.3 µM) | 8 µg/mL (≈ 22.3 µM) | –
CC(=O)NC[C@H]1CN(c2ccc3c(c2)CC(=O)N3CC2CC2)C(=O)O1 [Example 26, (S)—N-[3-(1-cyclopropylmethyl-2-oxo-2,3-dihydro-1H-indol-5-yl)-2-oxo-oxazolidin-5-ylmethyl]-acetamide] | 8 µg/mL (≈ 23.3 µM) | 4 µg/mL (≈ 11.6 µM) | 4 µg/mL (≈ 11.6 µM) | –
CCC(=O)NC[C@H]1CN(c2ccc3c(c2)CC(=O)N3CC2CC2)C(=O)O1 [Example 27, (S)—N-[3-(1-cyclopropylmethyl-2-oxo-2,3-dihydro-1H-indol-5-yl)-2-oxo-oxazolidin-5-ylmethyl]-propionamide] | 8 µg/mL (≈ 22.4 µM) | 4 µg/mL (≈ 11.2 µM) | 8 µg/mL (≈ 22.4 µM) | –
CC(=O)NC[C@H]1CN(c2ccc3c(c2)CC(=O)N3C(C)CF)C(=O)O1 (stereo partly drawn) [Example 28, (S)—N-{3-[1-(2-fluoro-1-methyl-ethyl)-2-oxo-2,3-dihydro-1H-indol-5-yl]-2-oxo-oxazolidin-5-ylmethyl}-acetamide] | 8 µg/mL (≈ 22.9 µM) | 2 µg/mL (≈ 5.72 µM) | 4 µg/mL (≈ 11.4 µM) | –

Further lines, results first:

MIC90 [1] | MIC90 [2] | MIC90 [3] | in vitro antibacterial activity MIC90 ([1]; S. aureus UC-76 SA-1) | Structure (SMILES)
8 µg/mL (≈ 26.4 µM) | 1 µg/mL (≈ 3.3 µM) | 2 µg/mL (≈ 6.59 µM) | – | CC(=O)NC[C@H]1CN(c2ccc3c(c2)CC(=O)N3C)C(=O)O1 [Example 1, (S)—N-[3-(1-methyl-2-oxo-2,3-dihydro-1H-indol-5-yl)-2-oxo-oxazolidin-5-ylmethyl]-acetamide]
8 µg/mL (≈ 25.2 µM) | 1 µg/mL (≈ 3.15 µM) | 2 µg/mL (≈ 6.3 µM) | – | CCC(=O)NC[C@H]1CN(c2ccc3c(c2)CC(=O)N3C)C(=O)O1 [Example 2, (S)—N-[3-(1-methyl-2-oxo-2,3-dihydro-1H-indol-5-yl)-2-oxo-oxazolidin-5-ylmethyl]-propionamide]
4 µg/mL (≈ 12.4 µM) | 2 µg/mL (≈ 6.22 µM) | 4 µg/mL (≈ 12.4 µM) | – | CC(=O)NC[C@H]1CN(c2cc(F)c3c(c2)CC(=O)N3C)C(=O)O1 [Example 3, N-[3-(7-fluoro-1-methyl-2-oxo-2,3-dihydro-1H-indol-5-yl)-2-oxo-oxazolidin-5-ylmethyl]-acetamide]
8 µg/mL (≈ 23.9 µM) | 2 µg/mL (≈ 5.96 µM) | 4 µg/mL (≈ 11.9 µM) | – | CCC(=O)NC[C@H]1CN(c2cc(F)c3c(c2)CC(=O)N3C)C(=O)O1 [Example 4, (S)—N-[3-(7-fluoro-1-methyl-2-oxo-2,3-dihydro-1H-indol-5-yl)-2-oxo-oxazolidin-5-ylmethyl]-propionamide]
8 µg/mL (≈ 25.2 µM) | 2 µg/mL (≈ 6.3 µM) | 8 µg/mL (≈ 25.2 µM) | – | CCN1C(=O)Cc2cc(N3C[C@H](CNC(C)=O)OC3=O)ccc21 [Example 5, (S)—N-[3-(1-ethyl-2-oxo-2,3-dihydro-1H-indol-5-yl)-2-oxo-oxazolidin-5-ylmethyl]-acetamide]
4 µg/mL (≈ 12.1 µM) | 2 µg/mL (≈ 6.04 µM) | 2 µg/mL (≈ 6.04 µM) | – | CCC(=O)NC[C@H]1CN(c2ccc3c(c2)CC(=O)N3CC)C(=O)O1 [Example 6, (S)—N-[3-(1-ethyl-2-oxo-2,3-dihydro-1H-indol-5-yl)-2-oxo-oxazolidin-5-ylmethyl]-propionamide]
2 µg/mL (≈ 5.96 µM) | 2 µg/mL (≈ 5.96 µM) | 2 µg/mL (≈ 5.96 µM) | – | CCN1C(=O)Cc2cc(N3C[C@H](CNC(C)=O)OC3=O)cc(F)c21 [Example 7, (S)—N-[3-(1-ethyl-7-fluoro-2-oxo-2,3-dihydro-1H-indol-5-yl)-2-oxo-oxazolidin-5-ylmethyl]-acetamide]
4 µg/mL (≈ 11.4 µM) | 4 µg/mL (≈ 11.4 µM) | 2 µg/mL (≈ 5.72 µM) | – | CCC(=O)NC[C@H]1CN(c2cc(F)c3c(c2)CC(=O)N3CC)C(=O)O1 [Example 8, (S)—N-[3-(1-ethyl-7-fluoro-2-oxo-2,3-dihydro-1H-indol-5-yl)-2-oxo-oxazolidin-5-ylmethyl]-propionamide]
8 µg/mL (≈ 23.9 µM) | 2 µg/mL (≈ 5.96 µM) | 2 µg/mL (≈ 5.96 µM) | – | CC(=O)NC[C@H]1CN(c2ccc3c(c2)CC(=O)N3CCF)C(=O)O1 [Example 9, (S)—N-{3-[1-(2-fluoro-ethyl)-2-oxo-2,3-dihydro-1H-indol-5-yl]-2-oxo-oxazolidin-5-ylmethyl}-acetamide]
8 µg/mL (≈ 22.9 µM) | 2 µg/mL (≈ 5.72 µM) | 2 µg/mL (≈ 5.72 µM) | 4 µg/mL | CCC(=O)NC[C@H]1CN(c2ccc3c(c2)CC(=O)N3CCF)C(=O)O1 [Example 10, (S)—N-{3-[1-(2-fluoro-ethyl)-2-oxo-2,3-dihydro-1H-indol-5-yl]-2-oxo-oxazolidin-5-ylmethyl}-propionamide]
4 µg/mL (≈ 11.3 µM) | 1 µg/mL (≈ 2.83 µM) | 2 µg/mL (≈ 5.66 µM) | – | CC(=O)NC[C@H]1CN(c2cc(F)c3c(c2)CC(=O)N3CCF)C(=O)O1 [Example 11, (S)—N-{3-[7-fluoro-1-(2-fluoro-ethyl)-2-oxo-2,3-dihydro-1H-indol-5-yl]-2-oxo-oxazolidin-5-ylmethyl}-acetamide]
4 µg/mL (≈ 12.1 µM) | 2 µg/mL (≈ 6.04 µM) | 4 µg/mL (≈ 12.1 µM) | – | CC(=O)NC[C@H]1CN(c2ccc3c(c2)CC(=O)N3C(C)C)C(=O)O1 [Example 13, (S)—N-[3-(1-isopropyl-2-oxo-2,3-dihydro-1H-indol-5-yl)-2-oxo-oxazolidin-5-ylmethyl]-acetamide]
4 µg/mL (≈ 11.4 µM) | 2 µg/mL (≈ 5.72 µM) | 2 µg/mL (≈ 5.72 µM) | – | CC(=O)NC[C@H]1CN(c2cc(F)c3c(c2)CC(=O)N3C(C)C)C(=O)O1 [Example 15, (S)—N-[3-(7-fluoro-1-isopropyl-2-oxo-2,3-dihydro-1H-indol-5-yl)-2-oxo-oxazolidin-5-ylmethyl]-acetamide]
4 µg/mL (≈ 12.1 µM) | 2 µg/mL (≈ 6.04 µM) | 4 µg/mL (≈ 12.1 µM) | – | CCCN1C(=O)Cc2cc(N3C[C@H](CNC(C)=O)OC3=O)ccc21 [Example 17, (S)—N-[2-oxo-3-(2-oxo-1-propyl-2,3-dihydro-1H-indol-5-yl)-oxazolidin-5-ylmethyl]-acetamide]
2 µg/mL (≈ 5.53 µM) | 2 µg/mL (≈ 5.53 µM) | 2 µg/mL (≈ 5.53 µM) | – | CC(=O)NC[C@H]1CN(c2cc(F)c3c(c2)CC(=O)N3CC2CC2)C(=O)O1 [Example 29, (S)—N-[3-(1-cyclopropylmethyl-7-fluoro-2-oxo-2,3-dihydro-1H-indol-5-yl)-2-oxo-oxazolidin-5-ylmethyl]-acetamide]
